Reference: patent US9145415B2, “Nitrogen-containing heterocyclic compound or salt thereof” (FUJIFILM Corporation, priority 2012, dated 2015)

Tests used:
[1] = target: T1, human FLT3 protein (FLT3 (WT)) (Homo sapiens, UniProt P36888); experiment: FLT3 inhibition test (FLT3 enzyme inhibition, time-resolved fluorescence of substrate peptide phosphorylation); format: biochemical; conditions: GST-fused human FLT3 (564 to 993 aa), ATP 50 μM; read-out: FLT3 (WT) enzyme inhibition activity
T1 construct: human FLT3 protein (intracellular region, 564 to 993 aa); GST; purchased Carna Biosciences; host or cells: baculovirus expression system
T1 sequence (P36888 564-993): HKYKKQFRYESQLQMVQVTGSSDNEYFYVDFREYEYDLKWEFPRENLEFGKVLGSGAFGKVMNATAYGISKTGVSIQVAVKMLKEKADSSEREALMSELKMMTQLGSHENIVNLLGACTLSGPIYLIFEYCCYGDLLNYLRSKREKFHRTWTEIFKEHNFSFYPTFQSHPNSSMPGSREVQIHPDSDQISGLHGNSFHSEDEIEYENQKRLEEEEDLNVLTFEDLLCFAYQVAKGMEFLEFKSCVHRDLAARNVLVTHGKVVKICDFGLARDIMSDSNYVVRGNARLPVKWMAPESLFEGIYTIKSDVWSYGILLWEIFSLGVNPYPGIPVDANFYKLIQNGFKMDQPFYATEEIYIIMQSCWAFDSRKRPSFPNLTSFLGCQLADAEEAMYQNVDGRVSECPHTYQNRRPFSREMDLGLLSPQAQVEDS
Procedure, shortened: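 Substrate peptide phosphorylation detected by time-resolved fluorescence after a 30 min kinase reaction at 25° C with 50 μM ATP (final). Beforehand, compound and FLT3 (WT, 1.2 μg) stood 15 min at 25° C in HEPES buffer pH 7.5 containing MgCl2, NaCl, BSA and DTT.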

Molm-13 cells = experiment: Leukemia cell proliferation inhibition test (ATPlite), Molm-13; format: cell-based; conditions: Homo sapiens, MOLM-13, 72 h, Molm-13, 72 hours culture, ATPlite; GI50 per method; read-out: MOLM13 cell proliferation inhibition effect
Procedure, shortened: (§1)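 Luminescent ATP read-out (firefly luciferase) used as a total cell count after 72 h compound exposure at 37° C, 5% CO2. Cells: 10,000/well in RPMI + 10% FBS. GI50 = 50% inhibition relative to 0.1% DMSO, from a sigmoid dose-response fit; duplicates.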

MV4-11 cells = experiment: Leukemia cell proliferation inhibition test (ATPlite), MV4-11; format: cell-based; conditions: Homo sapiens, MV4-11, 72 h, MV4-11, 72 hours culture, ATPlite; GI50 per method; read-out: MV4-11 cell proliferation inhibition effect
Procedure, shortened: as §1

IC50 [1] | IC50 (Molm-13 cells) | IC50 (MV4-11 cells) | Structure (SMILES)
< 10 nM | < 10 nM | < 10 nM | CCCN(CCC)c1nc(Nc2ccc(C#N)cc2)ncc1C#CCCCNC(=O)[C@H](C)N(C)C(=O)/C=C/CN(C)C [Compound 10-16]
< 10 nM | 10 to 100 nM | < 10 nM | CN(C)C/C=C/C(=O)N(C)CC(=O)NCCCC#Cc1cnc(Nc2ccc(F)cc2)nc1N1CCOCC1 [Compound 10-17]
< 10 nM | < 10 nM | < 10 nM | CN(C)C/C=C/C(=O)N(C)CC(=O)NCCCC#Cc1cnc(Nc2ccc(F)cc2)nc1NCC1CCOCC1 [Compound 10-18]
< 10 nM | < 10 nM | < 10 nM | COc1ccc(Nc2nc(Nc3ccc(F)cc3)ncc2C#CCCCNC(=O)CN(C)C(=O)/C=C/CN(C)C)cc1 [Compound 10-19]
< 10 nM | < 10 nM | < 10 nM | COc1ccc(Nc2nc(Nc3ccc(F)cc3)ncc2C#CCCCNC(=O)CN(C)C(=O)/C=C/CN(C)C)cn1 [Compound 10-20]
< 10 nM | < 10 nM | < 10 nM | CN(C)C/C=C/C(=O)N(C)CC(=O)NCCCC#Cc1cnc(Nc2ccc(F)cc2)nc1NCCCF [Compound 10-21]
< 10 nM | < 10 nM | < 10 nM | CCCN(CCC)c1nc(Nc2ccc(F)cc2)ncc1C#CCCCNC(=O)CN(C)C(=O)/C=C/CN(C)C [Compound 10-22]
< 10 nM | < 10 nM | < 10 nM | Cc1ccc(Nc2nc(Nc3ccc(C#N)cc3)ncc2C#CCCCNC(=O)[C@H](C)N(C)C(=O)/C=C/CN(C)C)cc1 [Compound 10-23]
< 10 nM | < 10 nM | < 10 nM | CC(C)CNc1nc(Nc2ccc(C#N)cc2)ncc1C#CCCCNC(=O)[C@H](C)N(C)C(=O)/C=C/CN(C)C [Compound 10-24]
< 10 nM | < 10 nM | < 10 nM | C[C@@H](C(=O)NCCCC#Cc1cnc(Nc2ccc(C#N)cc2)nc1NC1CC1)N(C)C(=O)/C=C/CN(C)C [Compound 10-25]
< 10 nM | 10 to 100 nM | < 10 nM | COCCCNc1nc(Nc2ccc(F)cc2)ncc1C#CCCCNC(=O)[C@H](C)N(C)C(=O)/C=C/CN(C)C [Compound 10-26]
< 10 nM | < 10 nM | < 10 nM | COCCCNc1nc(Nc2ccc(F)cc2)ncc1C#CCCCNC(=O)CN(C)C(=O)/C=C/CN(C)C [Compound 10-27]
< 10 nM | 10 to 100 nM | < 10 nM | C[C@@H](C(=O)NCCCC#Cc1cnc(Nc2ccc(F)cc2)nc1N1CCN(C)CC1)N(C)C(=O)/C=C/CN(C)C [Compound 10-28]
< 10 nM | < 10 nM | < 10 nM | C[C@@H](C(=O)NCCCC#Cc1cnc(Nc2ccc(C#N)cc2)nc1NCCCF)N(C)C(=O)/C=C/CN(C)C [Compound 10-29]
< 10 nM | 10 to 100 nM | < 10 nM | COCCCNc1nc(Nc2ccc(F)nc2)ncc1C#CCCCNC(=O)[C@H](C)N(C)C(=O)/C=C/CN(C)C [Compound 10-30]
< 10 nM | 10 to 100 nM | < 10 nM | COCCCNc1nc(Nc2ccc(F)nc2)ncc1C#CCCCNC(=O)CN(C)C(=O)/C=C/CN(C)C [Compound 10-31]
< 10 nM | < 10 nM | < 10 nM | CC[C@@H](C(=O)NCCCC#Cc1cnc(Nc2ccc(F)nc2)nc1Nc1cccc(F)c1)N(C)C(=O)/C=C/CN(C)C [Compound 10-32]
< 10 nM | < 10 nM | < 10 nM | C[C@@H](C(=O)NCCCC#Cc1cnc(Nc2ccc(F)nc2)nc1NCC(F)(F)F)N(C)C(=O)/C=C/CN(C)C [Compound 10-33]
< 10 nM | < 10 nM | < 10 nM | C[C@@H](C(=O)NCCCC#Cc1cnc(Nc2ccc(F)nc2)nc1NCCCF)N(C)C(=O)/C=C/CN(C)C [Compound 10-34]
< 10 nM | 10 to 100 nM | < 10 nM | CC[C@@H](C(=O)NCCCC#Cc1cnc(Nc2ccc(F)nc2)nc1NCC(F)(F)F)N(C)C(=O)/C=C/CN(C)C [Compound 10-35]
< 10 nM | < 10 nM | < 10 nM | CN(C)C/C=C/C(=O)N(C)CC(=O)NCCCC#Cc1cnc(Nc2ccc(F)nc2)nc1NCC(F)(F)F [Compound 10-36]

IC50 [1] | IC50 (Molm-13 cells) | IC50 (MV4-11 cells) | Structure (SMILES)
< 10 nM | < 10 nM | < 10 nM | CC[C@@H](C(=O)NCCCC#Cc1cnc(Nc2ccc(F)nc2)nc1Nc1ccc(OC)cc1)N(C)C(=O)/C=C/CN(C)C [Compound 10-37]
< 10 nM | 10 to 100 nM | < 10 nM | C[C@@H](C(=O)NCCCC#Cc1cnc(Nc2ccc(F)cc2)nc1N1CCCCC1)N(C)C(=O)/C=C/CN(C)C [Compound 10-38]
< 10 nM | < 10 nM | < 10 nM | CC[C@@H](C(=O)NCCCC#Cc1cnc(Nc2ccc(F)cc2)nc1Nc1ccc(OC)nc1)N(C)C(=O)/C=C/CN(C)C [Compound 10-39]
< 10 nM | < 10 nM | < 10 nM | COc1ccc(Nc2nc(Nc3ccc(F)cc3)ncc2C#CCCCNC(=O)[C@H](C)N(C)C(=O)/C=C/CN(C)C)cn1 [Compound 10-40]
< 10 nM | < 10 nM | < 10 nM | C[C@@H](C(=O)NCCCC#Cc1cnc(Nc2ccc(C#N)cc2)nc1N1CCC(F)CC1)N(C)C(=O)/C=C/CN(C)C [Compound 10-41]
< 10 nM | < 10 nM | < 10 nM | C[C@@H](C(=O)NCCCC#Cc1cnc(Nc2ccc(C#N)cc2)nc1N1CCC(F)(F)C1)N(C)C(=O)/C=C/CN(C)C [Compound 10-42]
< 10 nM | 10 to 100 nM | 10 to 100 nM | C[C@@H](C(=O)NCCCC#Cc1cnc(Nc2ccc(C#N)cc2)nc1N1CCC(F)(F)CC1)N(C)C(=O)/C=C/CN(C)C [Compound 10-43]
< 10 nM | < 10 nM | < 10 nM | C[C@@H](C(=O)NCCCC#Cc1cnc(Nc2ccc(C#N)cc2)nc1N1CCCC(F)(F)C1)N(C)C(=O)/C=C/CN(C)C [Compound 10-44]
< 10 nM | < 10 nM | < 10 nM | CNc1nc(Nc2ccc(C#N)cc2)ncc1C#CCCCNC(=O)[C@H](C)N(C)C(=O)/C=C/CN(C)C [Compound 10-45]
< 10 nM | < 10 nM | < 10 nM | CCNc1nc(Nc2ccc(C#N)cc2)ncc1C#CCCCNC(=O)[C@H](C)N(C)C(=O)/C=C/CN(C)C [Compound 10-46]
< 10 nM | < 10 nM | < 10 nM | C[C@@H](C(=O)NCCCC#Cc1cnc(Nc2ccc(C#N)cc2)nc1NC1CCC1)N(C)C(=O)/C=C/CN(C)C [Compound 10-47]
< 10 nM | < 10 nM | < 10 nM | C[C@@H](C(=O)NCCCC#Cc1cnc(Nc2ccc(C#N)cc2)nc1NC1CCCC1)N(C)C(=O)/C=C/CN(C)C [Compound 10-48]
< 10 nM | < 10 nM | < 10 nM | COCCCNc1nc(Nc2ccc(C#N)cc2)ncc1C#CCCCNC(=O)[C@H](C)N(C)C(=O)/C=C/CN(C)C [Compound 10-49]
< 10 nM | < 10 nM | < 10 nM | COCCNc1nc(Nc2ccc(C#N)cc2)ncc1C#CCCCNC(=O)[C@H](C)N(C)C(=O)/C=C/CN(C)C [Compound 10-50]
< 10 nM | < 10 nM | < 10 nM | COCCN(C)c1nc(Nc2ccc(C#N)cc2)ncc1C#CCCCNC(=O)[C@H](C)N(C)C(=O)/C=C/CN(C)C [Compound 10-51]
< 10 nM | < 10 nM | < 10 nM | CNc1nc(Nc2ccc3c(cnn3C)c2)ncc1C#CCCCNC(=O)[C@H](C)N(C)C(=O)/C=C/CN(C)C [Compound 10-52]
< 10 nM | < 10 nM | < 10 nM | CCNc1nc(Nc2ccc3c(cnn3C)c2)ncc1C#CCCCNC(=O)[C@H](C)N(C)C(=O)/C=C/CN(C)C [Compound 10-53]
< 10 nM | < 10 nM | < 10 nM | C[C@@H](C(=O)NCCCC#Cc1cnc(Nc2ccc3c(cnn3C)c2)nc1NC1CC1)N(C)C(=O)/C=C/CN(C)C [Compound 10-54]
< 10 nM | < 10 nM | < 10 nM | COCCCNc1nc(Nc2ccc3c(cnn3C)c2)ncc1C#CCCCNC(=O)[C@H](C)N(C)C(=O)/C=C/CN(C)C [Compound 10-55]
< 10 nM | < 10 nM | < 10 nM | CNc1nc(Nc2ccc3cnn(C)c3c2)ncc1C#CCCCNC(=O)[C@H](C)N(C)C(=O)/C=C/CN(C)C [Compound 10-56]
< 10 nM | < 10 nM | < 10 nM | CCNc1nc(Nc2ccc3cnn(C)c3c2)ncc1C#CCCCNC(=O)[C@H](C)N(C)C(=O)/C=C/CN(C)C [Compound 10-57]
